Consider 11 molecules from patent US10987351B2, “RORgamma modulators and uses thereof” (Genfit, priority 2017, dated 2021).

pIC50: −log10 of the molar value. Values joined by “and” are separate entries in the source; they are usually repeats but may differ in a detail not shown here. Equal entries are not always repeated.

Assay [1] concerns the target T1, RORγt ligand-binding domain (RORγt-LBD) (Homo sapiens, UniProt P51449).
T1 construct: 20 nM recombinantly expressed RORγ-LBD fused to GST
T1 sequence (P51449 269-508 limits assumed): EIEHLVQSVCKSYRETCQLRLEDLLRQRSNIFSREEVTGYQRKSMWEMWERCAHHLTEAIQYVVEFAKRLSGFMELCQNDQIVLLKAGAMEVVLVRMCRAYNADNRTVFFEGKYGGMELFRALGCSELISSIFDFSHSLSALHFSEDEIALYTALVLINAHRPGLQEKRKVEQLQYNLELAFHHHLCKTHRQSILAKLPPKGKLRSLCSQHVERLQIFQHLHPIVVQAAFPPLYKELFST
The assay can be described thus: Time-resolved FRET (TR-FRET) RORγt coactivator assay. In kind it is biochemical. To be noted: GST-RORγ-LBD, biotinylated RIP140 peptide, 2 hours; read-out: IC50, coactivator-RORγt binding inhibition (TR-FRET). An excerpt: Time-resolved FRET (TR-FRET) RORγt coactivator assay was used to identify RORγ modulator compounds with ligand-dependent coactivator displacement. The assay uses a d2-labeled anti-GST antibody, synthetic N-terminally biotinylated peptide which is derived from nuclear receptor coactivator protein RIP140, and a RORγt ligand-binding domain (RORγt-LBD) that is tagged with glutathione-S-transferase (GST). The influence of compounds on the RORγ-peptide interaction relies on the binding dependent energy transfer from a donor to an acceptor fluorophor attached to the binding partner of interest. […] For reduction of background from compound fluorescence, TR-FRET method makes use of generic fluorophore labels and time resolved detection.
The assays were done in a final volume of 20 μl in a 384 well plate in a CHAPS buffer (2 mM CHAPS; 1 mM DTT, 2 mM EDTA; 0.1% BSA), containing 20 nM recombinantly expressed RORγ-LBD fused to GST, 30 nM N-terminally biotinylated peptide, 1 nM streptavidin-terbium conjugate and 20 nM d2 labeled-anti-GST. Test compounds were diluted using 10 mM stock solution. The range of the final compound concentrations used in this test was from 0.3 nM to 30 μM (logarithmic scale). DMSO content of the samples was kept at 1%. The assay was equilibrated for 2 hours in the dark at room temperature in 384 well plates (Falcon). The signal was detected by an Ultra384 reader (TECAN). […] Compounds that promote coactivator displacement induce a concentration-dependent decrease in time-resolved fluorescent signal. Data were collected and analyzed using GraphPad Prism software (GraphPad Software V5.02, San Diego Calif. USA). IC50 in μM and Emax in % were reported for each compound.
For orientation: TR-FRET usually uses a lanthanide donor and a delayed reading to cut background.

Another assay concerns the target T2, human RORγt (Homo sapiens, UniProt P51449).
T2 sequence (P51449 1-497 isoform P51449-2): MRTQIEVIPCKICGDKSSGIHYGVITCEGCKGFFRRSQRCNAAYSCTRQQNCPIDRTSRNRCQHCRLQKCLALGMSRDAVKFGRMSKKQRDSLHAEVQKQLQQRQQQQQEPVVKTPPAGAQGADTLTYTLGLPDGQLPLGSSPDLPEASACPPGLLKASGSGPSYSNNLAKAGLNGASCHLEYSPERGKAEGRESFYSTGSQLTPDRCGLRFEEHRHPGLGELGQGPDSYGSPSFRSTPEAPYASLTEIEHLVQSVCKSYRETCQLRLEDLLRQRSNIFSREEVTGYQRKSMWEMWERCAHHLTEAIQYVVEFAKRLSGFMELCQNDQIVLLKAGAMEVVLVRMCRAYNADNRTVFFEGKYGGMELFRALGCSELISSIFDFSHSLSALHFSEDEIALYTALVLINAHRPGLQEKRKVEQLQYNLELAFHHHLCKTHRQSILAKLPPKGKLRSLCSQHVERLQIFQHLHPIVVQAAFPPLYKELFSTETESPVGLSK
The assay can be described thus: RORE Luciferase/RORγt transactivation assay. In kind it is cell-based. Also on record: the full-length cDNA of human RORγt; V5-His (encoded by the vector); expressed in transfected cells; host or cells: COS-7 (monkey kidney). To be noted: COS-7 cells transfected with human IL-17 promoter luciferase reporter and RORγt plasmid, 20 h; read-out: IC50, RORγt activity inhibition (luciferase reporter). As for the experimental part:
It is well known that RORγ binds to a conserved non-coding sequence (CNS) enhancer element in the IL-17 promoter.
Culture medium was changed every 2 days.
The 4.3 Kb human IL-17 promoter containing the RORγ-specific CNS enhancer element was PCR amplified from human genomic DNA and cloned into a pGL3-TKLuc2Cp reporter plasmid.
The luciferase reporter plasmid and the RORγt overexpression plasmid were transfected into COS-7 cell line using 4 μLJetPEI™/μg of DNA. Briefly, 150 ng of DNA (ration 1/2 between RORE-Tk Luc2Cp and cDNA RORγt or the empty vector for the negative control) was served to transfect adherent COS-7 cells in a […] culture flask, in complete medium (see cos-7 cell line culture).
Cells were then detached (using trypsin) and washed by centrifugation at 300 g for 10 minutes. Cell pellet was resuspended in serum free/phenol red free DMEM and seeded in 384 well plates at a density of 10000 cells/well and then incubated for 4 h at 37° C.
Compounds were dissolved in 100% DMSO to obtain 10 mM stock solutions. For each compound, test concentrations were diluted in serum free/phenol red free DMEM using the Genesis Freedom 200™ (TECAN) and added to the cells to obtain a 0.3% DMSO final concentration (in a final volume of 40 μL per well).
The luciferase activity was then measured with 40 μL/well steady-Glo Luciferase assay system (Promega, Madison, Wis.) and after incubation at room temperature for 30 minutes. The luminescence was estimated using the Ultra384 reader (TECAN). Data were collected and analyzed using GraphPad Prism software (GraphPad Software V5.02, San Diego Calif. USA). IC50 in μM and Emax in % were reported for each compound.
A general note: In a reporter assay the amount or activity of a reporter protein is the signal.

With `CC(=O)N1CCN(c2ccc(CC(=O)NC(CC(C)C)c3ccccc3N3CCCCC3)cc2)CC1` (centres unmarked) [Cpd.2, 2-[4-(4-acetylpiperazin-1-yl)phenyl]-N-{3-methyl-1-[2-(piperidin-1-yl)phenyl]butyl}acetamide], the negative-log IC50 (pIC50) (in assay [1]; at human RORγt) was 6.00 to 7.00 in each case.
For `Cc1ccc(C(NC(=O)Cc2cc(N3CCN(C(=O)OC(C)(C)C)CC3)ccc2F)c2ccccc2)c(N2CCCCC2)c1` (centres unmarked) [Cpd.4, tert-butyl 4-{4-fluoro-3-[({[4-methyl-2-(piperidin-1-yl)phenyl](phenyl)methyl}carbamoyl)methyl]phenyl}piperazine-1-carboxylate], the negative logarithm of the IC50 (pIC50) on human RORγt was 6.00 to 7.00.
Turning to `Cc1ccc(C(NC(=O)Cc2cc(N3CCN(C(=O)OC(C)(C)C)CC3)ccc2C)c2ccccc2)c(N2CCCCC2)c1` (centres unmarked) [Cpd.5, tert-butyl 4-{4-methyl-3-[({[4-methyl-2-(piperidin-1-yl)phenyl](phenyl)methyl}carbamoyl)methyl]phenyl}piperazine-1-carboxylate], the negative logarithm of the IC50 (pIC50) in assay [1] is 5.00 to 6.00; on human RORγt, under 5.00.
In the same order, the values of `Cc1ccc(C(NC(=O)Cc2cc(N3CCNCC3)ccc2C)c2ccccc2)c(N2CCCCC2)c1` (centres unmarked) [Cpd.6, N-{[4-methyl-2-(piperidin-1-yl)phenyl](phenyl)methyl}-2-[2-methyl-5-(piperazin-1-yl)phenyl]acetamide] are 5.00 to 6.00 and 5.00 to 6.00.
In the same order, the values of `Cc1ccc(C(NC(=O)Cc2cc(N3CCNCC3)ccc2F)c2ccccc2)c(N2CCCCC2)c1` (centres unmarked) [Cpd.7, 2-[2-fluoro-5-(piperazin-1-yl)phenyl]-N-{[4-methyl-2-(piperidin-1-yl)phenyl](phenyl)methyl}acetamide] are 5.00 to 6.00 and under 5.00.
For `Cc1ccc(C(NC(=O)Cc2cc(N3CCN(C(=O)OC(C)(C)C)CC3)ccc2C)c2ccc(C)o2)c(N2CCCCC2)c1` (centres unmarked) [Cpd.8, tert-butyl 4-{4-methyl-3-[({[4-methyl-2-(piperidin-1-yl)phenyl](5-methylfuran-2-yl)methyl}carbamoyl)methyl]phenyl}piperazine-1-carboxylate], in that order: 5.00 to 6.00 and 6.00 to 7.00.
Turning to `Cc1ccc(C(NC(=O)Cc2cc(N3CCNCC3)ccc2C)c2ccc(C)o2)c(N2CCCCC2)c1` (centres unmarked) [Cpd.9, N-{[4-methyl-2-(piperidin-1-yl)phenyl](5-methylfuran-2-yl)methyl}-2-[2-methyl-5-(piperazin-1-yl)phenyl]acetamide], the results for the pIC50 (in assay [1]; on human RORγt) were 6.00 to 7.00 and 5.00 to 6.00, respectively.
`CC(=O)N1CCN(c2ccc(F)c(CC(=O)NC(c3ccccc3)c3ccc(C)cc3N3CCCCC3)c2)CC1` (centres unmarked) [Cpd.13, 2-[5-(4-acetylpiperazin-1-yl)-2-fluorophenyl]-N-{[4-methyl-2-(piperidin-1-yl)phenyl](phenyl)methyl}acetamide]: the negative logarithm of the IC50 (pIC50) was over 7.00 in assay [1] and 6.00 to 7.00 at human RORγt.
Consider `COc1ccc(C(NC(=O)Cc2cc(N3CCN(C(C)=O)CC3)ccc2C)c2ccccc2)c(N2CCCCCC2)c1` (centres unmarked) [Cpd.15, 2-[5-(4-acetylpiperazin-1-yl)-2-methylphenyl]-N-{[2-(azepan-1-yl)-4-methoxyphenyl](phenyl)methyl}acetamide], for which the negative-log IC50 (pIC50) in assay [1] was 6.00 to 7.00 and > 7.00; on human RORγt, 6.00 to 7.00.
Regarding `Cc1ccc(C(NC(=O)Cc2cc(N3CCC(S(C)(=O)=O)CC3)ccc2F)c2ccc(C)o2)c(N2CCCCC2)c1` (centres unmarked) [Cpd.21, 2-[2-fluoro-5-(4-methanesulfonylpiperidin-1-yl)phenyl]-N-{[4-methyl-2-(piperidin-1-yl)phenyl](5-methylfuran-2-yl)methyl}acetamide], the negative logarithm of the IC50 (pIC50) (in assay [1]; at human RORγt) was over 7.00 each time.
For the molecule `Cc1ccc(C(NC(=O)Cc2cccc(N3CCN(S(N)(=O)=O)CC3)c2)c2ccc(C)o2)c(N2CCCCC2)c1` (centres unmarked) [Cpd.24, N-{[4-methyl-2-(piperidin-1-yl)phenyl](5-methylfuran-2-yl)methyl}-2-[3-(4-sulfamoylpiperazin-1-yl)phenyl]acetamide], the negative logarithm of the IC50 (pIC50) on human RORγt was 6.00 to 7.00.

The term pIC50 denotes the IC50 on a negative log10 scale, so that one unit is a factor of ten.
